The values that follow come from patent US8034839B2, “Method of treating ocular allergy” (Alcon Research, Ltd., priority 2005, dated 2011).

Marks after values point to notes of the source that are not given here.

Test [1] deals with conjunctival EPO activity. As to the kind of experiment: Mouse late-phase allergy model (OVA-induced allergic conjunctivitis), conjunctival EPO activity assay. The format is in vivo, mouse (female BALB/c). The settings on record: for EPO Activity (ng/ml/mg tissue) ± S.D.: single 5 μl topical drop O.D. BID, conjunctival EPO activity at 24 hrs post-challenge, mean ± S.D. As for the experimental part:
Active Sensitization and Induction of Allergic Conjunctivitis (AC)
Female BALB/c mice, 6 to 9 months old (Charles River Labs), were given a single intraperitoneal injection of 100 μg chicken ovalbumin (OVA; Sigma) which had been absorbed to 5 mg of alum (Pierce Chemical) as an adjuvant or 5 mg alum only (unsensitized group). On day 14 after sensitization, all mice were challenged with a single topical drop O.D. of 1 mg OVA dissolved in 5 μl PBS.
Drugs or vehicles were administered to mice as a single 5 μl drop O.D. at 60 min before challenge and again at 16 hrs after challenge (BID dosing). Mice were euthanized at 24 hrs after challenge.
Mice were euthanized at 24 hrs after topical challenge and upper and lower eyelids containing palpebral conjunctiva were excised and immediately frozen on dry ice. Samples were weighed frozen and then thawed and homogenized on ice in 2 ml of 50 mM HEPES buffer, pH 6.5. Samples were pelleted at 4000 rpm for 20 min at 4° C. and supernatants were discarded. To each pellet, 1 ml of 0.5% cetyltrimethylammonium chloride (CTAC) was added and samples were vortexed vigorously. Samples were then subjected to three freeze-thaw cycles between −80° C. and 37° C. After final thaw, samples were sonicated on ice for 15-30 sec and pelleted at 4000 rpm for 20 min at 4° C. EPO activity assay was performed on supernatants.
For the EPO activity assay, 75 μl of each sample were added in triplicate to wells of a 96-well clear flat-bottomed microplate. 75 μl of EPO substrate solution [6 mM o-phenylenediamine (OPD), 8.8 mM H2O2, and 6 mM KBr in 50 mM HEPES, pH 6.5] were then added to each well using a multichannel pipetter. The reaction was allowed to run for 3 min and was stopped by addition of 150 μl of 4M H2SO4. Optical density at 490 nm (OD490) was read on a Bio-Tek Synergy. HT plate reader. […] 75 μl triplicates of each standard were used on each run of the assay. Linear regression was determined for the resulting plot of [EPO] vs OD490. Final [EPO] in each sample was determined by solving for x in the equation y=m*x+b, where y=OD490, m=[…].
Groups of means were compared using Student's unpaired t-test or Dunnett's t-test where appropriate. […] Data are expressed as mean±standard deviation.

The test system of the next test is neutrophils. Conditions: disclosed by Lee et al., Biochem. Biophys. Res. Commun. 1991; cited from earlier work.

As for `COC(=O)CCC[C@H](O)[C@H](O)CO` [compound 1], the “inhibition of conjunctival EPO activity (in words)” value in test [1] (all three doses (0.001%, 0.01%, and 0.1% solutions), 24 hrs post-challenge, efficacy comparable to 0.1% dexamethasone) is listed as “significantly inhibited”. For the same compound, the “EPO Activity (ng/ml/mg tissue) ± S.D.” value in test [1] (dose 0.001%) is recorded as 5.2 ± 2.5^c,d ng/ml/mg tissue; in test [1] (dose 0.01%) it was 4.8 ± 1.2^c,d ng/ml/mg tissue; in test [1] (dose 0.1%), 3.2 ± 1.0^c,d ng/ml/mg tissue. The “inhibition of LTB4-induced chemotaxis of neutrophils” value (“inhibition … of neutrophils” for short) with neutrophils is on record as “as potently as lipoxin A4”.

Turning to `CCCCC[C@H](O)[C@H](O)CO` [compound 2], the “inhibition … of neutrophils” value with neutrophils is given as “as potently as lipoxin A4”.

In the case of `CCCCC[C@H](O)/C=C/C=C\C=C\C=C\[C@@H](O)[C@@H](O)CCCC(=O)O` [lipoxin A4, Lipoxin A4, reference compound], the “inhibition … of neutrophils” value with neutrophils is recorded as “inhibit”.

With `C[C@@H]1C[C@H]2[C@@H]3CCC4=CC(=O)C=C[C@]4(C)[C@@]3(F)[C@@H](O)C[C@]2(C)[C@@]1(O)C(=O)CO` [dexamethasone, reference compound], in test [1] (dose 0.1%), the “EPO Activity (ng/ml/mg tissue) ± S.D.” value is reported as 4.0 ± 0.5^c ng/ml/mg tissue.
